Consider 2 compounds from PMC7762498, “Demethoxycurcumin analogue DMC-BH exhibits potent anticancer effects on orthotopic glioblastomas” (Aging (Albany NY), 2020).

One series deals with p-Akt. Nature of the series: Western blot of orthotopic xenograft tissue, p-Akt. In kind it is in vivo, mice. The settings on record: U87 orthotopic xenografts, versus control. The source says: The PI3K/Akt/mTOR signaling pathway is over activated in glioma tissues, and this increased activation is closely related to malignancy and chemoresistance of gliomas. Previous research reported that among its potential anti-tumor actions in breast cancer, DMC targeted multiple AMPK downstream pathways involving dephosphorylation of Akt and mTOR inhibition. Because DMC-BH is a DMC derivative, we further investigated the inhibitory effects of DMC-BH on gliomas by targeting the Akt/mTOR signaling pathway. We evaluated the expression of p-Akt, and p-mTOR in tumor tissues after DMC-BH treatment (Figure 6A). […] No significant changes were found in total Akt and mTOR expression. Moreover, the expression of p-Akt and p-mTOR in the DMC group was decreased with that in the control group (P < 0.05).
Figure 6 The effects of DMC-BH and DMC on the Akt/mTOR signaling pathway in U87 orthotopic glioblastoma xenografts. (A) Total protein was extracted from U87 orthotopic glioblastoma xenografts. Then p-Akt and p-mTOR protein expression was detected by Western blot. (B) The column chart illustrates the relative expression levels of these proteins.
For orientation: In western blotting, separated proteins are transferred to a membrane and probed.

Series [1] in a line: BBB penetrability (brain-to-plasma AUC ratio). In kind it is in vivo. The source says:
To determine whether DMC-BH inhibits the growth of glioma in the brain, we assessed its octanol-water partition coefficients and BBB penetrability. The hydrophobic parameters (logP) of DMC-BH and DMC were estimated under physiological as well as in acidic and basic conditions. The logP values for DMC-BH were negative at pH 2.5 and pH 9.0, as it was an amphoteric compound. At low pH or high pH conditions, DMC-BH occurred in the form of salts, and its logP values became negative due to better solubility.
Figure 2 Octanol-water partition coefficients (logP) and BBB penetrability of DMC-BH. (A) The logP was defined as log(Coctanol/Cwater). The amount of the compound in the water phase was determined spectrophotometrically, and the amount in the octanol phase was obtained by subtracting the supernatant concentration from the total concentration. (B) The BBB penetrability was defined as a brain-to-plasma AUC(time point) ratio. Values are expressed as the means ± SEM of 3 independent experiments.

Another series has as its system U87 cell line. In words: Subcutaneous human glioma xenograft in SCID mice. The settings on record: for tumor volume at day 21: U87 subcutaneous xenograft, 20 mg/kg/day intraperitoneal, 21 days, control 1514 mm^3; for median survival: U87 xenograft, 20 mg/kg, control 15 days. Type of series: in vivo. The source says:
To examine the anti-glioma effects of DMC-BH in vivo, a human glioma-SCID (severe combined immunodeficient) mouse model was established using the U87 cell line. […] The tumor volumes for the control, TMZ, DMC, and DMC-BH mice at day 21 were 1514 mm^3, 587 mm^3, 876 mm^3 and 570 mm^3, respectively. […] As shown in the Kaplan-Meier curves, the median survival was 15, 27, 19 and 35 days for the control, TMZ, DMC and DMC-BH groups, respectively (Figure 3B).
Figure 3 DMC-BH inhibited U87 glioma cell growth in vivo. Subcutaneous tumors generated from U87 cells were allowed to reach a volume of 150-200 mm^3 and were treated with 20 mg/kg TMZ, DMC or DMC-BH for 21 days. (A) Tumor volume was recorded according to treatment group at the indicated day. (B) The survival of brain tumor-bearing mice was recorded and represented in a Kaplan-Meier plot.
1-[4-Hydroxy-3-(pyrrolidin-1-ylmethyl) phenyl]-7-(4-hydroxy-3-methoxyphenyl) hepta-1,6-diene-3,5-dione, named DMC-BH, was constructed by our lab. DMC was obtained from Sigma-Aldrich (St. Louis, MO). To test the anti-glioma effect of DMC-BH in vivo, a xenograft model of human glioma was established. Four-week-old male SCID mice were purchased from Vital River Laboratory Animal Technology Co., Ltd. (Beijing, China). After a 1-week acclimatization, SCID mice were injected subcutaneously in the right flank with 6 × 10^5 […] glioma cells resuspended in 50 μL DMEM media. Treatment was initiated when the subcutaneous tumors reached an average size of 150 mm^3 to 200 mm^3. Mice received intraperitoneal injection of DMC (20 mg/kg/day), DMC-BH (20 mg/kg/day), TMZ (20 mg/kg/day) or vehicle as a control. Tumor diameter was measured every 2 days with calipers, and the tumor volume was calculated (length × width × height × 0.5). All experiments were carried out in keeping with the procedures and protocols of the Animal Ethics Committee of the First People's Hospital of Kunshan.

As usually defined, the Kp is the ratio of the level in a tissue or fluid to that in plasma or blood. Take `COc1cc(C=CC(=O)CC(=O)C=Cc2ccc(O)c(CN3CCCC3)c2)ccc1O` [DMC-BH, 1-[4-Hydroxy-3-(pyrrolidin-1-ylmethyl)phenyl]-7-(4-hydroxy-3-methoxyphenyl) hepta-1,6-diene-3,5-dione]: the “p-Akt expression in tumor tissues” value in the series on p-Akt is given as “significantly decreased”. Besides, in series [1] (brain and plasma), the Kp at 4 h is 4.6. For the same compound, in the series on U87 cell line, the “tumor volume at day 21” value came to 570 mm^3 and the median survival is given as 35 days.

As to “Demethoxycurcumin [DMC, reference compound]”, in the series with p-Akt, the “p-Akt expression in tumor tissues” value is given as “decreased”. Moreover, the “brain-to-plasma AUC(4h) ratio” value in series [1] came out at 0.56. In the series with U87 cell line, the “tumor volume at day 21” value amounted to 876 mm^3 and the median survival came out at 19 days.
